Square brackets hold non-standard residues; d marks the D form. Peptide text beside a SMILES is read from it. * marks the point of attachment. Dip = N[C@H](C(=O)O)C(c1ccccc1)c1ccccc1; Tos = Cc1ccc(S(=O)(=O)*)cc1; OBn = c1ccc(CO*)cc1; Sar = CNCC(=O)O
Row | melting point | Compound
1 | 150 to 152 °C | Cc1ccc(S(=O)(=O)NC(C(=O)N[C@@H](Cc2ccccc2)C(=O)O)c2ccccc2)cc1 (mixture of isomers) [Example 9, N-(Toluene-4-sulfonyl)-D,L-phenylglycyl-L-phenylalanine]
2 | 145 to 147 °C | CCOC(=O)[C@H](Cc1ccccc1)NC(=O)C(NS(=O)(=O)c1ccc(C)cc1)c1ccccc1 (mixture of isomers) [Example 22, N-(Toluene-4-sulfonyl)-D,L-phenylglycyl-L-phenylalanine Ethyl Ester]
3 | 46 to 49 °C | Cc1ccc(S(=O)(=O)N(C)C(C(=O)N[C@@H](Cc2ccccc2)C(=O)OCc2ccccc2)c2ccccc2)cc1 (mixture of isomers) [Example 30, N-(Toluene-4-sulfonyl)-N-methyl-D,L-phenylglycyl-L-phenylalanine Benzyl Ester]
4 | 157 to 161 °C | Cc1ccc(S(=O)(=O)NCC(=O)N[C@@H](Cc2ccccc2)C(=O)O)cc1 [Example 3, N-(Toluene-4-sulfonyl)glycyl-L-phenylalanine] (Tos-Gly-Phe-OH)
5 | 128 to 130 °C | Cc1ccc(S(=O)(=O)N(C)CC(=O)N[C@@H](Cc2ccccc2)C(=O)O)cc1 [Example 4, N-(Toluene-4-sulfonyl)sarcosyl-L-phenylalanine] (Tos-[Sar]-Phe-OH)
6 | 80 to 82 °C | Cc1ccc(S(=O)(=O)N(C)CC(=O)N[C@@H](Cc2ccccc2)C(=O)OCc2ccccc2)cc1 [Example 21, N-(Toluene-4-sulfonyl)sarcosyl-L-phenylalanine Benzyl Ester] (Tos-[Sar]-Phe-OBn)
7 | 79 to 84 °C | Cc1ccc(S(=O)(=O)N[C@H](C(=O)N[C@@H](Cc2ccccc2)C(=O)OCc2ccccc2)C(c2ccccc2)c2ccccc2)cc1 [Example 25, N-(Toluene-4-sulfonyl)-L-diphenylalanyl-L-phenylalanine Benzyl Ester] (Tos-[Dip]-Phe-OBn)

Continued, molecule first:

Row | Compound | melting point
8 | Cc1ccc(S(=O)(=O)NC(C(=O)N[C@@H](Cc2ccccc2)C(=O)OCc2ccccc2)c2ccccc2)cc1 (mixture of isomers) [Example 29, N-(Toluene-4-sulfonyl)-D,L-phenylglycyl-L-phenylalanine Benzyl Ester] | 148 to 150 °C
9 | Cc1ccc(S(=O)(=O)N[C@@H](C)C(=O)N[C@@H](Cc2ccccc2)C(=O)O)cc1 [Example 5, N-(Toluene-4-sulfonyl)-L-alanyl-L-phenylalanine] | 105 to 108 °C
10 | COC(=O)c1ccccc1S(=O)(=O)NCC(=O)N[C@@H](Cc1ccccc1)C(=O)O [Example 6, N-(2-Methoxycarbonylbenzenesulfonyl)-glycyl-L-phenylalanine] | 140 to 143 °C
11 | Cc1ccc(S(=O)(=O)N[C@@H](C)C(=O)N[C@@H](Cc2ccccc2)C(=O)OCc2ccccc2)cc1 [Example 20, N-(Toluene-4-sulfonyl)-L-alanyl-L-phenylalanine Benzyl Ester] | 109 to 110 °C

— patent publication US7166580B2, “Compounds which inhibit leukocyte adhesion mediated by VLA-4” (Elan Pharmaceuticals, Inc., priority 1997, dated 2007)
